A short description of data set [1]: Antimicrobial activity (general statement). The settings on record: qualitative statement, no comparator named.
For a further data set, the system named is S. aureus F-3095. As to the kind of experiment: Susceptibility test 1: MIC by micro-dilution method. The data set is classed as cell-based. Conditions: Staphylococcus aureus. As for the experimental part:
(§1) Test substances were initially dissolved in dimethylsulfoxide. Antibacterial activities (MICs) of the same compounds were determined by the micro-dilution method as recommended by the Japanese Society of Chemotherapy.
(§2) The bacteria cultured on Mueller-Hinton agar (MHA) plates at 35° C. overnight were suspended in sterile physiological saline in a concentration that was equivalent to 0.5 McFarland. The bacterial inoculum was prepared by 10-fold dilution of this suspension. Approximately 0.005 mL of the bacterial inoculum was inoculated into Cation-adjusted Mueller-Hinton broth (CAMHB, 100 μL/well) containing the test substance and was incubated at 35° C. overnight. The lowest concentration of the test substance at which no bacterial growth was macroscopically observed was determined as the MIC.

The subject of a further data set is S. aureus FDA209P. The description is as above. The format is cell-based. The settings on record: Staphylococcus aureus, read-out: MIC (μg/mL) S. aureus FDA209P. As to the method:
as §1, §2

Data set [2] can be described thus: Tissue distribution (general statement). Conditions: qualitative statement, no comparator named.
A short description of data set [3]: Metabolic stability (general statement). The data set is classed as in vitro ADME. Conditions: qualitative statement, no comparator named. From the text:
The compound of the general formula [1] of the present invention has excellent metabolic stability. The metabolic stability can be evaluated by various tests, for example, by various types of stability tests selected from a human liver microsome metabolic stability test, a human S9 stability test, and the like.

Data set [4] is described as follows: Safety (general statement). The settings on record: qualitative statement, no comparator named. From the text: The compound of the general formula [1] of the present invention has excellent safety. The safety can be evaluated by various tests, for example, by various types of safety tests selected from a cytotoxicity test, a selectivity test against DNA gyrase of human and various bacteria, a selectivity test against topoisomerase IV of human and various bacteria, an hERG test, a repeat-dose toxicity test, a cytochrome P450 (CYP) activity inhibition test, a metabolic dependence inhibition test, an in vivo mouse micronucleus test, an in vivo rat liver UDS test, and the like.

In data set [5] the test system is Staphylococcus aureus (S. aureus Smith). The experiment in a line: S. aureus infection experiment in mice. The format is in vivo. Conditions: ICR mice, five per group; intraperitoneal infection; 3 mg/kg subcutaneously once, 1 hour after infection. As to the method:
ICR mice (male, SPF grade, 4-week old, five mice per group) were used. A bacterial inoculum was prepared by suspending Staphylococcus aureus (S. aureus
Smith), which was cultured on a Mueller-Hinton agar plate at 37° C. overnight, in sterile physiological saline, preparing a bacterial solution of about 4×10^8 CFU/mL, and diluting the solution 10-fold in 5.6% mucin-phosphate buffer. ICR mice were intraperitoneally administered with the bacterial inoculum (approximately 2×10^7 CFU/mouse) to induce infection. Test substances were dissolved in 10% hydroxypropyl-β-cyclodextrin and 0.05 mol/L hydrochloric acid. […] The number of surviving mice was recorded on 5 days after the infection.

The next data set is described as follows: Cytotoxicity test (XTT). The format is cell-based. Conditions: African green monkey, vero cells, 3 days incubation, absorbance 450 nm, read-out: CC50 (concentration when cell proliferation was inhibited by 50%). As for the experimental part:
Each test substance was dissolved in dimethyl sulfoxide and was prepared to each concentration with E-MEM containing 10% FBS, and then 0.1 mL of this solution was dispensed into each well of a 96-well microplate. A vero cell suspension containing 3×10^4 cells/mL was prepared with E-MEM containing 10% FBS, and 0.1 mL of the suspension was inoculated to each well. After incubation in 5% CO2 at 37° C. for 3 days, 50 μL of E-MEM containing 1 mg/mL of 2,3-bis-(2-methoxy-4-nitro-5-sulfophenyl)-5-[(phenylamino)carbonyl]-2H-tetrazolium, inner salt, monosodium salt (XTT) and 25 μM of phenazine methosulfate (PMS) was added to each well. After about 2 hours, the absorbance at 450 nm was measured with a microplate reader.
The absorbance ratio of each well supplied with the test substance and the control not containing the test substance was calculated, and the concentration of each compound when cell proliferation was inhibited by 50% (CC50; μg/mL) was calculated.
(In general: Formazan colour is commonly taken as a measure of viable cells.)

[6] abbreviates: F3095, read-out: MIC (μg/mL) S. aureus F-3095.
Setting [7] is: F3095, F-3095 (MDRSA), CAMHB, 35° C. overnight, lowest concentration with no macroscopic growth, read-out: MIC (μg/mL) S. aureus F-3095.
Setting [8] is: CAMHB, 35° C. overnight, lowest concentration with no macroscopic growth.

The structures appear in SMILES notation. Values after ≈ are worked out from the molar mass of the structure shown. Counter-ions that a name gives are not always drawn. Like-named read-outs stand apart in the source and are kept apart here.

For the compound `COc1cnc2ccc(=O)n(CCN3CCC(NCc4cc5c(cn4)OCCO5)CC3)c2c1` [Example 2, 1-(2-(4-((2,3-dihydro(1,4)dioxino(2,3-c)pyridin-7-ylmethyl)amino)piperidin-1-yl)ethyl)-7-methoxy-1,5-naphthyridin-2(1H)-one hydrochloride], the antimicrobial activity result in data set [1] is recorded as “higher”. For the same compound, the MIC with S. aureus F-3095 (setting [6]) and with S. aureus FDA209P was 0.0313 µg/mL each time. Also, the tissue distribution entry in data set [2] is on record as “higher”. For the same compound, in data set [3], the metabolic stability result is reported as “higher”. Moreover, the safety result in data set [4] was “higher”. Besides, the “number of surviving mice on 5 days after the infection” value (“number of surviving mice on 5 days” for short) in data set [5] is “all mice”. Besides, in the data set “Cytotoxicity test (XTT)”, the CC50 at 3 days is at least 51.2 µg/mL.

As to `O=c1ccc2ncc(F)cc2n1CCN1CCC(NCc2cc3c(cn2)OCCO3)CC1` [Example 4, 1-(2-(4-((2,3-dihydro(1,4)dioxino(2,3-c)pyridin-7-ylmethyl)amino)piperidin-1-yl)ethyl)-7-fluoro-1,5-naphthyridin-2(1H)-one hydrochloride], the antimicrobial activity result in data set [1] was “higher”. Further, the MIC in the data set on S. aureus F-3095 (setting [6]) and in the data set on S. aureus FDA209P was 0.0313 µg/mL in each case. Moreover, the tissue distribution entry in data set [2] is recorded as “higher”. Besides, the metabolic stability result in data set [3] is given as “higher”. Moreover, the safety entry in data set [4] is recorded as “higher”. For the same compound, the “number of surviving mice on 5 days” value in data set [5] is given as “all mice”. In the data set “Cytotoxicity test (XTT)”, the CC50 at 3 days was at least 51.2 µg/mL.

As to `COc1ccc2ncc(=O)n(CCN3CCC(NCc4ccc5c(n4)NC(=O)CS5)CC3)c2n1` [Example 55, 6-(((1-(2-(6-methoxy-3-oxopyrido(2,3-b)pyrazin-4(3H)-yl)ethyl)piperidin-4-yl)amino)methyl)-2H-pyrido(3,2-b)(1,4)thiazin-3(4H)-one], the MIC amounted to 0.0078 µg/mL (≈ 0.0162 µM) with S. aureus F-3095 (setting [7]) and 0.0039 µg/mL (≈ 0.0081 µM) in the data set on S. aureus FDA209P (setting [8]). In addition, the CC50 at 3 days in “Cytotoxicity test (XTT)” was at least 51.2 µg/mL.

In the case of `COc1cnc2ncc(=O)n(CCN3CCC(NCc4cc5c(cn4)OCCO5)CC3)c2c1` [Example 68, 1-(2-(4-((2,3-dihydro(1,4)dioxino(2,3-c)pyridin-7-ylmethyl)amino)piperidin-1-yl)ethyl)-7-methoxypyrido(2,3-b)pyrazin-2(1H)-one hydrochloride], in data set [5], the “number of surviving mice on 5 days” value is listed as “all mice”. Also, the CC50 at 3 days in the data set “Cytotoxicity test (XTT)” is at least 51.2 µg/mL.

In the case of `O=c1ccc2ncc(Cl)cc2n1CCN1CCC(NCc2cc3c(cn2)OCCO3)CC1` [Example 77, 7-chloro-1-(2-(4-((2,3-dihydro(1,4)dioxino(2,3-c)pyridin-7-ylmethyl)amino)piperidin-1-yl)ethyl)-1,5-naphthyridin-2(1H)-one hydrochloride], in data set [1], the antimicrobial activity entry is reported as “higher”. The results for the MIC in the data set on S. aureus F-3095 (setting [6]) and in the data set with S. aureus FDA209P were 0.0625 µg/mL and 0.0313 µg/mL, respectively. Moreover, the tissue distribution result in data set [2] is reported as “higher”. Besides, the metabolic stability entry in data set [3] was “higher”. The safety entry in data set [4] was “higher”. Besides, the “number of surviving mice on 5 days” value in data set [5] is recorded as “all mice”. For the same compound, the CC50 at 3 days in “Cytotoxicity test (XTT)” is at least 51.2 µg/mL.

As for `COc1cnc2ccc(=O)n(CCN3CCC(NCc4ccc5c(n4)NC(=O)CO5)CC3)c2c1` [Example 79, 1-(2-(4-((3-oxo-3,4-dihydro-2H-pyrido(3,2-b)(1,4)oxazin-6-yl)methylamino)piperidin-1-yl)ethyl)-7-methoxy-1,5-naphthyridin-2(1H)-one hydrochloride], the MIC in the data set with S. aureus F-3095 (setting [6]) is 0.0156 µg/mL; with S. aureus FDA209P it was 0.0078 µg/mL. For the same compound, the CC50 at 3 days in the data set “Cytotoxicity test (XTT)” was at least 51.2 µg/mL.

Take `COc1cnc2ccc(=O)n(CCN3CCC(NCc4cnc5c(c4)OCCO5)CC3)c2c1` [Example 80, 1-(2-(4-((2,3-dihydro(1,4)dioxino(2,3-b)pyridin-7-yl)methylamino)piperidin-1-yl)ethyl)-7-methoxy-1,5-naphthyridin-2(1H)-one hydrochloride]: the MIC turned out to be 0.0156 µg/mL in the data set on S. aureus F-3095 (setting [6]) and 0.0078 µg/mL in the data set on S. aureus FDA209P. Also, the CC50 at 3 days in the data set “Cytotoxicity test (XTT)” is at least 51.2 µg/mL.

Take `COc1cnc2ccc(=O)n(CCN3CCC(NCc4ccc5c(n4)NC(=O)CS5)CC3)c2c1` [Example 90, 6-(((1-(2-(7-methoxy-2-oxo-1,5-naphthyridin-1(2H)-yl)ethyl)piperidin-4-yl)amino)methyl)-2H-pyrido(3,2-b)(1,4)thiazin-3(4H)-one]: the MIC in the data set on S. aureus F-3095 (setting [7]) and with S. aureus FDA209P (setting [8]) was 0.0313 µg/mL (≈ 0.0651 µM) throughout. In the data set “Cytotoxicity test (XTT)”, the CC50 at 3 days is at least 51.2 µg/mL.

For the compound `COc1cnc2ccc(=O)n(CCN3CCC(NCc4cnc(C)c(F)c4)CC3)c2c1` [Example 93, 1-(2-(4-(((5-fluoro-6-methylpyridin-3-yl)methyl)amino)piperidin-1-yl)ethyl)-7-methoxy-1,5-naphthyridin-2(1H)-one], the values for the MIC in the data set on S. aureus F-3095 (setting [7]) and in the data set with S. aureus FDA209P (setting [8]) were 0.0313 µg/mL (≈ 0.0736 µM) and 0.0625 µg/mL (≈ 0.147 µM), respectively. Besides, the “number of surviving mice on 5 days” value in data set [5] was “all mice”. Moreover, the CC50 at 3 days in “Cytotoxicity test (XTT)” was at least 51.2 µg/mL.

As to `COc1cnc2ccc(=O)n(CCN3CCC(NCc4cnc(C)c(F)c4)CC3)c2n1` [Example 96, 5-(2-(4-(((5-fluoro-6-methylpyridin-3-yl)methyl)amino)piperidin-1-yl)ethyl)-3-methoxypyrido(2,3-b)pyrazin-6(5H)-one], the MIC with S. aureus F-3095 (setting [7]) and in the data set with S. aureus FDA209P (setting [8]) was 0.0625 µg/mL (≈ 0.147 µM) throughout. Besides, the CC50 at 3 days in “Cytotoxicity test (XTT)” was at least 51.2 µg/mL.

With `O=c1ccc2ncc(F)cc2n1CCN1CCC(NCc2cc3c(cn2)OCCC3)CC1` [Example 103, 1-(2-(4-((3,4-dihydro-2H-pyrano(2,3-c)pyridin-6-ylmethyl)amino)piperidin-1-yl)ethyl)-7-fluoro-1,5-naphthyridin-2(1H)-one hydrochloride], the MIC in the data set on S. aureus F-3095 (setting [6]) and in the data set with S. aureus FDA209P was 0.0625 µg/mL in each case. Besides, the “number of surviving mice on 5 days” value in data set [5] is “all mice”. In the data set “Cytotoxicity test (XTT)”, the CC50 at 3 days was at least 51.2 µg/mL.

Take `COc1cnc2ccc(=O)n(CCC3(O)CCC(NCc4cc5c(cn4)OCCO5)CC3)c2n1` (stereo not shown) [Example 119B, 5-(2-(4-((2,3-dihydro(1,4)dioxino(2,3-c)pyridin-7-ylmethyl)amino)-1-hydroxycyclohexyl)ethyl)-3-methoxypyrido(2,3-b)pyrazin-6(5H)-one]: the MIC in the data set with S. aureus F-3095 (setting [7]) and in the data set with S. aureus FDA209P (setting [8]) was 0.0625 µg/mL (≈ 0.134 µM) in each case. For the same compound, in data set [5], the “number of surviving mice on 5 days” value is “all mice”.

For `COc1cnc2ccc(=O)n(CCN3CCC(NCc4cc(-c5ccco5)on4)CC3)c2c1` [Example 140, 1-(2-(4-(((5-(2-furyl)isoxazol-3-yl)methyl)amino)piperidin-1-yl)ethyl)-7-methoxy-1,5-naphthyridin-2(1H)-one], the MIC in the data set on S. aureus F-3095 (setting [7]) and with S. aureus FDA209P (setting [8]) was 0.0156 µg/mL (≈ 0.0347 µM) in each case. In addition, the “number of surviving mice on 5 days” value in data set [5] was “all mice”.

As to `COc1cnc2c(C)cc(=O)n(CCN3CCC(NCc4cc5c(cn4)OCCO5)CC3)c2c1` [Example 149, 1-(2-(4-((2,3-dihydro(1,4)dioxino(2,3-c)pyridin-7-ylmethyl)amino)piperidin-1-yl)ethyl)-7-methoxy-4-methyl-1,5-naphthyridin-2(1H)-one hydrochloride], the MIC in the data set on S. aureus F-3095 (setting [6]) and in the data set on S. aureus FDA209P was 0.0313 µg/mL throughout. The “number of surviving mice on 5 days” value in data set [5] was “all mice”.

Take `O=c1ccc2ncc(OC(F)F)cc2n1CCN1CCC(NCc2cc3c(cn2)OCCO3)CC1` [Example 151, 7-(difluoromethoxy)-1-(2-(4-((2,3-dihydro(1,4)dioxino(2,3-c)pyridin-7-ylmethyl)amino)piperidin-1-yl)ethyl)-1,5-naphthyridin-2(1H)-one hydrochloride]: the MIC in the data set with S. aureus F-3095 (setting [6]) amounted to 0.125 µg/mL; in the data set with S. aureus FDA209P it was 0.0313 µg/mL. In addition, the “number of surviving mice on 5 days” value in data set [5] is on record as “all mice”.

The record behind these values is patent publication US8367831B2, “Heterocyclic compound or salt thereof and intermediate thereof” (priority 2006, dated 2013).
